Like-named read-outs stand apart in the source and are kept apart here.
Key:
AHR [1] = molecular target: T1, AHR (Homo sapiens, UniProt P35869); test: In vitro assay 1: antagonism in human cell line (AHR transactivation, firefly luciferase reporter, kynurenic acid prestimulated); format: cell-based; conditions: AHR Antagonism Human IC50 [M]
T1 construct: U87 MG glioblastoma cells (ATCC #HTB-14) endogenously expressing AHR; endogenous in cells; host or cells: U87 MG glioblastoma cells (ATCC #HTB-14)
T1 sequence (P35869 11-848): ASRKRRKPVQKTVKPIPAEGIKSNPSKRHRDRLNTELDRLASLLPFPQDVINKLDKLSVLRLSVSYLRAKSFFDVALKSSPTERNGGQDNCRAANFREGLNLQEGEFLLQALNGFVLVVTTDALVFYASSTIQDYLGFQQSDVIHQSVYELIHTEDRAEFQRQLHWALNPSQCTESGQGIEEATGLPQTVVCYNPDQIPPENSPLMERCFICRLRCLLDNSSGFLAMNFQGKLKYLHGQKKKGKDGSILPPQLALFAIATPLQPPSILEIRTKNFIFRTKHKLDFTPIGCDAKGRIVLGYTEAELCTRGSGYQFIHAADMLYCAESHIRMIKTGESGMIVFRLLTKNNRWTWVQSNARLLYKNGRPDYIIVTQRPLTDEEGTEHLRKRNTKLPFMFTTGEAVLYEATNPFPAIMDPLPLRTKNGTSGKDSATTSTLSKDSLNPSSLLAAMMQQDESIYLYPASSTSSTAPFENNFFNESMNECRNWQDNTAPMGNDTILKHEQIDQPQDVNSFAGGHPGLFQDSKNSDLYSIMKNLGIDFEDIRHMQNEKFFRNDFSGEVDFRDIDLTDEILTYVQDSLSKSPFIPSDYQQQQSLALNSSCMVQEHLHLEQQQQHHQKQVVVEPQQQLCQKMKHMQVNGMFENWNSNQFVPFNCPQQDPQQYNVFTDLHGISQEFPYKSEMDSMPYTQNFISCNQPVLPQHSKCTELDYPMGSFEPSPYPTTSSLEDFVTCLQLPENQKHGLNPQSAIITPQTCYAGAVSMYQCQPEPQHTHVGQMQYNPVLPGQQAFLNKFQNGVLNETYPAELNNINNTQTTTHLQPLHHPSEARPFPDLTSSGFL
In short: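 Antagonism measured as loss of kynurenic acid-driven firefly luciferase from DRE reporter in stably transfected U87 MG cells; constitutive Renilla signal monitors cytotoxicity. Positive/negative control normalization, staurosporine 5 μM with 150 μM kynurenic acid as inhibition control; replicates given as mean or median.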

AHR [2] = molecular target: T2, AHR (Mus musculus, UniProt P30561); test: In vitro assay 3: antagonism in mouse cell line (AHR transactivation, firefly luciferase reporter, kynurenic acid prestimulated); format: cell-based
T2 sequence (P30561 1-848 P471L/N533S/M589L): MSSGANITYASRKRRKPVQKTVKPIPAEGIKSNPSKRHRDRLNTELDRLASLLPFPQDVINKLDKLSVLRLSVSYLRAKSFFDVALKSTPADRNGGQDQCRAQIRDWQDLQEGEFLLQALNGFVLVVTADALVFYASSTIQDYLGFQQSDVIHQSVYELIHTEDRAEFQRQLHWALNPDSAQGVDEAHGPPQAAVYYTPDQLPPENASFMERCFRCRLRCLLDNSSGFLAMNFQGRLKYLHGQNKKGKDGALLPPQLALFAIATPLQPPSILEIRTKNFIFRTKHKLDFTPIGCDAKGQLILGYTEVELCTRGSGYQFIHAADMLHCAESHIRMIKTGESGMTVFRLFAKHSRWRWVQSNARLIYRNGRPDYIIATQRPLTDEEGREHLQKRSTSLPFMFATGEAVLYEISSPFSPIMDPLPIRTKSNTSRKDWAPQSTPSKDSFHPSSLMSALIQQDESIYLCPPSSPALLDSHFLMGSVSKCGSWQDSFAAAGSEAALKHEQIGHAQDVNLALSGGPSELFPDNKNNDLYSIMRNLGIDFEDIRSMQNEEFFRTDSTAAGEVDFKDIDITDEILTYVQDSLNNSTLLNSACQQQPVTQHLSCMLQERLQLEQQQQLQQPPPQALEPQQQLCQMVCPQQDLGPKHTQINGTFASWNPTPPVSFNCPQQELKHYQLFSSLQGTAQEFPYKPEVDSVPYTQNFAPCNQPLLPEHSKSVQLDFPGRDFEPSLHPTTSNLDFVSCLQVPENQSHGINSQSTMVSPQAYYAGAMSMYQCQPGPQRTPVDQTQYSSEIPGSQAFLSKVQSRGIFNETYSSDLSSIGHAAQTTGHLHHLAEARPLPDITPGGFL
In short: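 Antagonism read as reduced firefly luciferase signal (SteadyGlo) from a stably transfected AHR/DRE reporter in a mouse line prestimulated with kynurenic acid. Data normalized to controls, the full-inhibition control being cells without kynurenic acid; multiple determinations given as average or median values.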

[3] = mouse Hepa 1c1c7 cells, 200 μM kynurenic acid, 20 hours, read-out: AHR Antagonism Mouse IC50

| Structure (SMILES) | IC50 (AHR [1]) [M] | IC50 (AHR [2]; [3]) [nM] | IC50 (AHR [2]; read-out: AHR Antagonism Mouse IC50, mouse Hepa 1c1c7 cells, 200 μM kynurenic acid, 20 hours) [nM] |
| --- | --- | --- | --- |
| COc1cscc1-c1nc2c3ccccc3nc(N[C@@H]3CCN(C)C3=O)n2n1 [Example 337, (3R)-3-{[2-(4-methoxythiophen-3-yl)[1,2,4]triazolo[1,5-c]quinazolin-5-yl]amino}-1-methylpyrrolidin-2-one] | 1.71e-06 | > 20000 |  |
| CC[C@@H](Nc1nc2ccccc2c2nc(-c3cscc3OC)nn12)C(N)=O [Example 338, (2R)-2-{[2-(4-methoxythiophen-3-yl)[1,2,4]triazolo[1,5-c]quinazolin-5-yl]amino}butanamide] | 1.91e-07 | 53.9 |  |
| CCC[C@@H](Nc1nc2ccccc2c2nc(-c3cscc3OC)nn12)C(=O)NC [Example 339, N^2-[2-(4-methoxythiophen-3-yl)[1,2,4]triazolo[1,5-c]quinazolin-5-yl]-N-methyl-D-norvalinamide] | 3.37e-07 | 169 |  |
| O=C1NCCCC[C@H]1Nc1nc2ccccc2c2nc(-c3ccsc3)nn12 [Example 340, (3R)-3-{[2-(thiophen-3-yl)[1,2,4]triazolo[1,5-c]quinazolin-5-yl]amino}azepan-2-one] | 7.33e-10 | 0.517 |  |
| O=C1NCCCC[C@@H]1Nc1nc2ccccc2c2nc(-c3ccsc3)nn12 [Example 341] | 1.18e-07 | 17.7 |  |
| O=C1NCC[C@H]1Nc1nc2ccccc2c2nc(-c3ccsc3)nn12 [Example 342, (3R)-3-{[2-(thiophen-3-yl)[1,2,4]triazolo[1,5-c]quinazolin-5-yl]amino}pyrrolidin-2-one] | 2.21e-07 | 175 |  |
| O=C1NCCC[C@H]1Nc1nc2ccccc2c2nc(-c3ccsc3)nn12 [Example 343, (3R)-3-{[2-(thiophen-3-yl)[1,2,4]triazolo[1,5-c]quinazolin-5-yl]amino}piperidin-2-one] | 6.67e-08 | 178 |  |
| CC[C@@H](Nc1nc2ccccc2c2nc(-c3ccsc3)nn12)C(N)=O [Example 344] | 3.57e-09 | 0.628 |  |
| CN1CC[C@@H](Nc2nc3ccccc3c3nc(-c4ccsc4)nn23)C1=O [Example 345, (3R)-1-methyl-3-{[2-(thiophen-3-yl)[1,2,4]triazolo[1,5-c]quinazolin-5-yl]amino}pyrrolidin-2-one] | 1.24e-07 | 27 |  |
| Cc1sccc1-c1nc2c3ccccc3nc(N[C@H]3CCCCNC3=O)n2n1 [Example 347] | 1.17e-07 | 4.28 |  |
| Cc1sccc1-c1nc2c3ccccc3nc(N[C@@H]3CCCNC3=O)n2n1 [Example 348, (3R)-3-{[2-(2-methylthiophen-3-yl)[1,2,4]triazolo[1,5-c]quinazolin-5-yl]amino}piperidin-2-one] | 7.76e-08 | 37.4 |  |
| Cc1sccc1-c1nc2c3ccccc3nc(N[C@@H]3CCNC3=O)n2n1 [Example 349, (3R)-3-{[2-(2-methylthiophen-3-yl)[1,2,4]triazolo[1,5-c]quinazolin-5-yl]amino}pyrrolidin-2-one] | 5.16e-08 | 11.5 |  |
| Cc1sccc1-c1nc2c3ccccc3nc(N[C@@H]3CCN(C)C3=O)n2n1 [Example 350] | 4.13e-08 | 3.59 |  |
| CC[C@@H](Nc1nc2ccccc2c2nc(-c3ccsc3C)nn12)C(N)=O [Example 351] | 1.37e-09 | 0.125 |  |
| Cc1cc(-c2nc3c4ccccc4nc(N[C@H]4CCCCNC4=O)n3n2)cs1 [Example 353] | 2.36e-07 | 27.4 |  |
| Cc1cc(-c2nc3c4ccccc4nc(N[C@@H]4CCCNC4=O)n3n2)cs1 [Example 354, (3R)-3-{[2-(5-methylthiophen-3-yl)[1,2,4]triazolo[1,5-c]quinazolin-5-yl]amino}piperidin-2-one] | 4.05e-08 | 78.2 |  |
| Cc1cc(-c2nc3c4ccccc4nc(N[C@@H]4CCN(C)C4=O)n3n2)cs1 [Example 355] | 3.79e-08 | 36.6 |  |
| Cc1cc(-c2nc3c4ccccc4nc(N[C@@H]4CCNC4=O)n3n2)cs1 [Example 356, (3R)-3-{[2-(5-methylthiophen-3-yl)[1,2,4]triazolo[1,5-c]quinazolin-5-yl]amino}pyrrolidin-2-one] | 2.71e-08 | 30.4 |  |
| CC[C@@H](Nc1nc2ccccc2c2nc(-c3csc(C)c3)nn12)C(N)=O [Example 358] | 3.15e-09 | 1.78 |  |
| O=C1NCCCC[C@H]1Nc1nc2ccccc2c2nc(-c3cc(C(F)(F)F)cc(C(F)(F)F)c3)nn12 [Example 359, (3R)-3-({2-[3,5-Bis(trifluoromethyl)phenyl][1,2,4]triazolo[1,5-c]quinazolin-5-yl}amino)azepan-2-one] | > 2e-05 | 93.4 |  |
| O=C1NCC[C@H]1Nc1nc2ccccc2c2nc(-c3cc(C(F)(F)F)cc(C(F)(F)F)c3)nn12 [Example 360, (3R)-3-({2-[3,5-bis(trifluoromethyl)phenyl][1,2,4]triazolo[1,5-c]quinazolin-5-yl}amino)pyrrolidin-2-one] | > 2e-05 | 5440 |  |
| CC[C@@H](Nc1nc2ccccc2c2nc(-c3cc(C(F)(F)F)cc(C(F)(F)F)c3)nn12)C(N)=O [Example 361, (2R)-2-({2-[3,5-bis(trifluoromethyl)phenyl][1,2,4]triazolo[1,5-c]quinazolin-5-yl}amino)butanamide] | > 2e-05 | 66.8 |  |
| O=C1NCCCC[C@H]1Nc1nc2ccccc2c2nc(-c3cncc(C(F)(F)F)c3)nn12 [Example 362, (3R)-3-({2-[5-(trifluoromethyl)pyridin-3-yl][1,2,4]triazolo[1,5-c]quinazolin-5-yl}amino)azepan-2-one] | 1.91e-08 | 3.54 |  |
| O=C1NCCCC[C@H]1Nc1nc2ccccc2c2nc(-c3cc(C(F)(F)F)ccn3)nn12 [Example 363, (3R)-3-({2-[4-(trifluoromethyl)pyridin-2-yl][1,2,4]triazolo[1,5-c]quinazolin-5-yl}amino)azepan-2-one] | 3.5e-08 |  | 10.7 |
| O=C1NCC[C@H]1Nc1nc2ccccc2c2nc(-c3cc(C(F)(F)F)ccn3)nn12 [Example 366, (3R)-3-({2-[4-(trifluoromethyl)pyridin-2-yl][1,2,4]triazolo[1,5-c]quinazolin-5-yl}amino)pyrrolidin-2-one] | > 2e-05 | 593 |  |
| CC[C@@H](Nc1nc2ccccc2c2nc(-c3cc(C(F)(F)F)ccn3)nn12)C(N)=O [Example 367, (2R)-2-({2-[4-(trifluoromethyl)pyridin-2-yl][1,2,4]triazolo[1,5-c]quinazolin-5-yl}amino)butanamide] | 1.91e-07 | 10.5 |  |
| CCC[C@@H](Nc1nc2ccccc2c2nc(-c3cc(C(F)(F)F)ccn3)nn12)C(=O)NC [Example 368, N-methyl-N^2-{2-[4-(trifluoromethyl)pyridin-2-yl][1,2,4]triazolo[1,5-c]quinazolin-5-yl}-D-norvalinamide] | 5e-08 | 24.8 |  |
